Assay results: patent US10098900B2, “Pharmaceutical compositions and their use for treatment of cancer and autoimmune diseases” (ZHEJIANG DTRM BIOPHARMA CO. LTD., priority 2015, dated 2018)
Marks after values point to notes of the source that are not given here.

Tests used:
TMD-8 cell line = assay: Inhibition assay of tumor cell activity (cell viability), TMD-8; format: cell-based, human; conditions: individual compound; for inhibition at 0.01 µM / inhibition at 0.1 µM / inhibition at 1 µM / inhibition at 10 µM / inhibition at 100 µM: Homo sapiens, TMD8, 48 h, read-out: Inh % on TMD-8 cell line (AVG); for Inh % on TMD-8 cell line (AVG): 48 h
Description: Inhibition Assay of Tumor Cell Activity:
Tumor cells (TMD-8, DoHH2 and WSU-DLCL2) were transferred and attached to 96-well plates. After one night, blank buffer and selected concentrations (0.01 nM-100 μM) of the test compound solution were added. After 48 hours incubation, CellTiter-Go was added to lyse the cells. Recording luminescent signal and calculate the percent inhibition of cell viability

TMD-8 lymphoma xenograft = assay: Inhibition of tumor growth in vivo, TMD-8 lymphoma xenograft SCID mouse model; conditions: TMD-8, Oral, BID
Description: Inhibition Study of Tumor Growth In Vivo:
SCID mice or nude mice (weighing about 18 g at the beginning of the experiment) were randomly divided into groups by the software in order to achieve close average weights between groups and control the bias within the allowable range. The mice were injected BTK cell lines (TMD-8, WSU-DLCL2 and DoHH-2) for tumor formation. Inhibitors were administered orally once or twice a day, a total of 14 days, 21 days or 28 days. Body weights and tumor volume were recorded.
Xenograft Tumor Models Inoculated with TMD-8, or DoHH2, or WSU-DLCL2 Tumor Cell Lines:
TMD-8 is a sensitive human diffuse large B-cell lymphoma cell line, and DoHH2 is a more difficult to treat human follicular lymphoma cell line, while WSU-DLCL2 is a multi-drug resistant (MDR) human non-Hodgkin's lymphoma cell line. Drug combination therapies provide better efficacies in all three tumor models than single targeted agent alone.
The TMD-8, DoHH2, WSU-DLCL2 tumor cells were maintained in vitro as a suspension culture in RPMI-1640 medium supplemented with 10% heat inactivated fetal calf serum at 37° C. in an atmosphere of 5% CO2 in air. The tumor cells were routinely subcultured twice weekly. The cells growing in an exponential growth phase were harvested and counted for tumor inoculation. Each mouse was inoculated subcutaneously at the right flank with the tumor cells (10×10^6) in 0.2 ml of PBS with Matrigel (1:1) for tumor development. The treatments were started after the average tumor size reached approximately 100-200 mm^3. Each group consisted of 6-10 tumor-bearing mice. The testing article (vehicle, compound or combination) was orally administrated to the mice according to the predetermined doses for 14-days or 21-days. Animal body weight and tumor volume were measured every 2- or 3-days throughout the treatment.

[1] = test system: adjuvant-induced arthritis; assay: Adjuvant-induced arthritis (AA/AIA) model in female Lewis rats (paw volume, clinical score, histopathology); format: in vivo, rat; set-up: Pathological score (Mean ± SEM), Inflammatory cell infiltration / Pathological score (Mean ± SEM), Pannus growth / Pathological score (Mean ± SEM), Cartilage injury / Pathological score (Mean ± SEM), Bone resorption / Pathological score (Mean ± SEM), Total: scale not given here; conditions: for Paw volume (mL), Mean: 3 mg/kg BID (positive control)
Description: Adjuvant-Induced Arthritis AA Model: […] All rats except the normal group were immunized with complete Freund's adjuvant (CFA) subcutaneously at the left hind paw to induce arthritis at day 0. […] The treatments were given orally for 3 consecutive weeks. The body weight, paw volume and clinical score were monitored every other day after day 13 throughout the course of the study. At the terminal point, right hind paws were collected for histopathology analysis with H.E. staining.

SMILES | inhibition at 0.01 µM (TMD-8 cell line; 0.01 uM (10 nM)) [%] | inhibition at 0.1 µM (TMD-8 cell line; 0.1 uM (100 nM)) [%] | inhibition at 1 µM (TMD-8 cell line; 1 uM (1,000 nM)) [%] | inhibition at 10 µM (TMD-8 cell line) [%] | inhibition at 100 µM (TMD-8 cell line) [%] | further results
[2H]/C=C\C(=O)N1CC[C@@H](n2nc(-c3ccc(Oc4c(F)c(F)cc(F)c4F)cc3F)c3c(N)ncnc32)C1 [Compound 7] | 33.9 | 58.7 | 58.6 | 62.9 | 99.3 | 
CC[C@H](Nc1ncnc2[nH]cnc12)c1nc2cccc(F)c2c(=O)n1-c1ccccc1 [Compound 8, Idelalisib] | 29.4 | 48.8 | 68.9 | 87.7 | 96.8 | Antitumor effect (%) (TMD-8 lymphoma xenograft; FIG. 3, 21 days, 10 mg/kg): 26%; Antitumor effect (%) (TMD-8 lymphoma xenograft; FIG. 12, 14 days, 10 mg/kg): 48%
C=CC(=O)N1CCC[C@@H](n2nc(-c3ccc(Oc4ccccc4)cc3)c3c(N)ncnc32)C1 [Compound 9, Ibrutinib] | 56.2 | 59.1 | 66.1 | 81.4 | 99.9 | 
N#CC[C@H](C1CCCC1)n1cc(-c2ncnc3[nH]ccc23)cn1 [Compound 10, Ruxolitinib] | 0.05 | -5.53 | 101 |  |  | 
C[C@@H]1CCN(C(=O)CC#N)C[C@@H]1N(C)c1ncnc2[nH]ccc12 [Compound 11, Tofactinib] |  |  |  |  |  | Inh % on TMD-8 cell line (AVG) (TMD-8 cell line; 0.01 uM (10 nM)): 6.02%; Inh % on TMD-8 cell line (AVG) (TMD-8 cell line; 0.1 uM (100 nM)): 1.31%; Inh % on TMD-8 cell line (AVG) (TMD-8 cell line; 1 uM (1,000 nM)): 6.66%; Paw volume (mL), Mean ([1]; Day 0): 1.00 mL; Paw volume (mL), Mean ([1]; Day 17): 1.54*** mL; Paw volume (mL), Mean ([1]; Day 26): 1.37*** mL; Paw volume (mL), Mean ([1]; Day 28): 1.33*** mL; Paw volume (mL), Mean ([1]; Day 31): 1.23*** mL; Paw volume (mL), Mean ([1]; Day 33): 1.23*** mL; Pathological score (Mean ± SEM), Bone resorption ([1]; AA study, 11, 3 mg/kg): 0.5 ± 0.22; Pathological score (Mean ± SEM), Cartilage injury ([1]; AA study, 11, 3 mg/kg): 0.2 ± 0.20; Pathological score (Mean ± SEM), Inflammatory cell infiltration ([1]; AA study, 11, 3 mg/kg): 1.9 ± 0.18; Pathological score (Mean ± SEM), Pannus growth ([1]; AA study, 11, 3 mg/kg): 0.4 ± 0.22; Pathological score (Mean ± SEM), Total ([1]; AA study, 11, 3 mg/kg): 3.0 ± 0.73
CC1(C)CCC(CN2CCN(c3ccc(C(=O)NS(=O)(=O)c4ccc(NCC5CCOCC5)c([N+](=O)[O-])c4)c(Oc4cnc5[nH]ccc5c4)c3)CC2)=C(c2ccc(Cl)cc2)C1 [Compound 12, Venetoclax] | 11.1 | 18.8 | 37.6 |  |  | Inh % on TMD-8 cell line (AVG) (TMD-8 cell line; 0.01 uM (10 nM)): 11.12%; Inh % on TMD-8 cell line (AVG) (TMD-8 cell line; 0.1 uM (100 nM)): 18.81%; Inh % on TMD-8 cell line (AVG) (TMD-8 cell line; 1 uM (1,000 nM)): 37.55%; Antitumor effect (%) (TMD-8 lymphoma xenograft; FIG. 12, 14 days, 5 mg/kg): 12%
Cc1cc(O)c(-c2ccc([C@@H](C)CN(C)C)cc2)c2c1[nH]c(=O)c1sccc12 [Compound 13, (R)-9-(4-(1-(dimethylamino)propan-2-yl)phenyl)-8-hydroxy-6-methylthieno[2,3-c]quinolin-4(5H)-one] | 8.71 | 49.1 | 101 |  |  | 
